# Key:
# ceramide synthase = test: in vitro assay of ceramide synthase, rat liver microsomes; type: biochemical; conditions: inhibition may be biphasic (FIG. 5), read-out: apparent IC50 for inhibition of ceramide synthase in vitro
# Experimental: (§1) In vitro assays of serine palmitoyltransferase and ceramide synthase. A microsomal fraction was isolated from rat liver and assayed for serine palmitoyltransferase, as is known in the art as described in (24,29), and ceramide synthase, as is known in the art as described in (30), in the presence of varying concentrations of fumonisin B1. […] The reaction was initiated by adding palmitoyl-CoA and, after incubation at 37° C. for 15 min, the products were extracted, resolved by TLC, and quantitated as described above. Background counts were subtracted using data from identical assays that omitted palmitoyl-CoA.
# serum sphingolipids = test: long-chain bases liberated from total serum lipids by acid hydrolysis, ponies fed fumonisin; type: in vivo, pony
# Excerpt: Feeding protocols—Clinically normal ponies of varying age and sex were conditioned on the control diet for 21 days prior to the trial. Horse 341 was a 6 year old gelding (173-193 Kg), 299 was a 12 year old mare (205-215 Kg), 164 was a 12 year old mare (206-290 Kg) and 166 was a 16 year old mare (143-164 Kg). During the conditioning period and throughout the trial, all ponies received alfalfa hay by free choice. The test groups were fed varying levels of fumonisin (15 to 44 ppm) for varying lengths of time.
# Analysis of serum long-chain bases—Blood was drawn approximately twice a week, centrifuged to obtain serum, and aliquots were frozen for analyses of free sphingosine and sphinganine by HPLC as is known in the art as described in (28). To quantitate total sphingolipids in some samples, the extracts were acid hydrolyzed before preparing the samples for HPLC.
# rat hepatocytes [1] = test: mass measurements of phospholipids, total sphingolipids and free long-chain bases in hepatocytes; type: cell-based; conditions: for Mass Phosphatidylcholine / Mass Phosphatidylethanolamine / Mass Phosphatidylserine / Mass Total sphingolipids: 16 h
# Experimental: Mass measurements of the long-chain bases were conducted by HPLC, as is known in the art as previously described in (28), with C20-sphinganine as an internal standard. To quantitate total sphingolipids, the extracts were acid hydrolyzed before preparing the samples for HPLC and corrected, if necessary, for any losses during hydrolysis or extraction by spiking replicate samples with a known amount of ceramide or sphingomyelin.
# rat hepatocytes [2] = test: radiolabelling of phospholipids from [14C]serine in hepatocytes; type: cell-based; conditions: 16 h with [14C]serine
# Experimental: Other methods—The incorporation of radiolabel into other lipids was determined by separating the phospholipids by TLC using silica gel H plates developed with CHCl,:methanol:formic acid:water (56:30:2:1, v/v/v/v), visualization of the spots and standards with I2 vapor, and quantitation by scintillation counting. The amount of label in fatty acids was estimated using samples that had been incubated with 0.1 M KOH in methanol for 1 h at 37° C. and separated using the ceramide TLC system because the methyl esters migrate near the solvent front under these conditions.
# [3] = system: serine palmitoyltransferase; test: in vitro assay of serine palmitoyltransferase, rat liver microsomes; type: biochemical
# Experimental: as §1
# [4] = reference 14; cited from earlier work
# [5] = Pony 208, fumonisin feed (level not given), day 2
# [6] = Pony 208, fumonisin feed (level not given), day 6
# [7] = Pony 208, fumonisin feed (level not given), day 10
# [8] = Pony 208, fumonisin feed (level not given), day 13
smiles,measurement,setting,value
CCCC[C@@H](C)[C@@H](OC(=O)C[C@@H](CC(=O)O)C(=O)O)[C@H](C[C@@H](C)C[C@H](O)CCCC[C@@H](O)C[C@H](O)[C@H](C)N)OC(=O)C[C@@H](CC(=O)O)C(=O)O [fumonisin B1],IC50,ceramide synthase,~100 nM
same,Sphinganine Total (acid hydrolysis of serum lipids),"serum sphingolipids; Pony 164, feed 44 ppm, day 2",169 ± 30 pmol/mL
same,Sphinganine Total (−free),"serum sphingolipids; Pony 164, feed 44 ppm, day 2",99 pmol/mL
same,Sphingosine Total (acid hydrolysis of serum lipids),"serum sphingolipids; Pony 164, feed 44 ppm, day 2",621 ± 99 pmol/mL
same,Sphingosine Total (−free),"serum sphingolipids; Pony 164, feed 44 ppm, day 2",504 pmol/mL
same,Sphinganine Total (acid hydrolysis of serum lipids),"serum sphingolipids; Pony 164, feed 44 ppm, day 7",156 pmol/mL
same,Sphinganine Total (−free),"serum sphingolipids; Pony 164, feed 44 ppm, day 7",0 pmol/mL
same,Sphingosine Total (acid hydrolysis of serum lipids),"serum sphingolipids; Pony 164, feed 44 ppm, day 7",254 ± 32 pmol/mL
same,Sphingosine Total (−free),"serum sphingolipids; Pony 164, feed 44 ppm, day 7",102 pmol/mL
same,Sphinganine Total (acid hydrolysis of serum lipids),"serum sphingolipids; Pony 164, feed 44 ppm, day 10",786 ± 234 pmol/mL
same,Sphinganine Total (−free),"serum sphingolipids; Pony 164, feed 44 ppm, day 10",503 pmol/mL
same,Sphingosine Total (acid hydrolysis of serum lipids),"serum sphingolipids; Pony 164, feed 44 ppm, day 10",2960 ± 585 pmol/mL
same,Sphingosine Total (−free),"serum sphingolipids; Pony 164, feed 44 ppm, day 10",2740 pmol/mL
same,Sphinganine Total (acid hydrolysis of serum lipids),"serum sphingolipids; Pony 166, feed 44 ppm, day 2",131 ± 40 pmol/mL
same,Sphinganine Total (−free),"serum sphingolipids; Pony 166, feed 44 ppm, day 2",94 pmol/mL
same,Sphingosine Total (acid hydrolysis of serum lipids),"serum sphingolipids; Pony 166, feed 44 ppm, day 2",1020 ± 313 pmol/mL
same,Sphingosine Total (−free),"serum sphingolipids; Pony 166, feed 44 ppm, day 2",974 pmol/mL
same,Sphinganine Total (acid hydrolysis of serum lipids),"serum sphingolipids; Pony 166, feed 44 ppm, day 7",206 ± 18 pmol/mL
same,Sphinganine Total (−free),"serum sphingolipids; Pony 166, feed 44 ppm, day 7",144 pmol/mL
same,Sphingosine Total (acid hydrolysis of serum lipids),"serum sphingolipids; Pony 166, feed 44 ppm, day 7",950 ± 154 pmol/mL
same,Sphingosine Total (−free),"serum sphingolipids; Pony 166, feed 44 ppm, day 7",985 pmol/mL
same,Sphinganine Total (acid hydrolysis of serum lipids),"serum sphingolipids; Pony 166, feed 44 ppm, day 10",212 ± 28 pmol/mL
same,Sphinganine Total (−free),"serum sphingolipids; Pony 166, feed 44 ppm, day 10",34 pmol/mL
same,Sphingosine Total (acid hydrolysis of serum lipids),"serum sphingolipids; Pony 166, feed 44 ppm, day 10",634 ± 192 pmol/mL
same,Sphingosine Total (−free),"serum sphingolipids; Pony 166, feed 44 ppm, day 10",540 pmol/mL
same,Sphinganine Total (acid hydrolysis of serum lipids),"serum sphingolipids; Pony 166, feed 44 ppm, day 13",823 ± 54 pmol/mL
same,Sphinganine Total (−free),"serum sphingolipids; Pony 166, feed 44 ppm, day 13",650 pmol/mL
same,Sphingosine Total (acid hydrolysis of serum lipids),"serum sphingolipids; Pony 166, feed 44 ppm, day 13",1740 ± 150 pmol/mL
same,Sphingosine Total (−free),"serum sphingolipids; Pony 166, feed 44 ppm, day 13",1640 pmol/mL
same,Sphinganine Total (acid hydrolysis of serum lipids),serum sphingolipids; [5],387 ± 26 pmol/mL
same,Sphinganine Total (−free),serum sphingolipids; [5],107 pmol/mL
same,Sphingosine Total (acid hydrolysis of serum lipids),serum sphingolipids; [5],3490 ± 358 pmol/mL
same,Sphingosine Total (−free),serum sphingolipids; [5],3190 pmol/mL
same,Sphinganine Total (acid hydrolysis of serum lipids),serum sphingolipids; [6],718 ± 75 pmol/mL
same,Sphinganine Total (−free),serum sphingolipids; [6],60 pmol/mL
same,Sphingosine Total (acid hydrolysis of serum lipids),serum sphingolipids; [6],2390 ± 388 pmol/mL
same,Sphingosine Total (−free),serum sphingolipids; [6],2030 pmol/mL
same,Sphinganine Total (acid hydrolysis of serum lipids),serum sphingolipids; [7],2040 ± 70 pmol/mL
same,Sphinganine Total (−free),serum sphingolipids; [7],200 pmol/mL
same,Sphingosine Total (acid hydrolysis of serum lipids),serum sphingolipids; [7],4450 ± 10 pmol/mL
same,Sphingosine Total (−free),serum sphingolipids; [7],3460 pmol/mL
same,Sphinganine Total (acid hydrolysis of serum lipids),serum sphingolipids; [8],9990 ± 379 pmol/mL
same,Sphinganine Total (−free),serum sphingolipids; [8],9604 pmol/mL
same,Sphingosine Total (acid hydrolysis of serum lipids),serum sphingolipids; [8],15970 ± 1576 pmol/mL
same,Sphingosine Total (−free),serum sphingolipids; [8],15040 pmol/mL
same,Mass Phosphatidylcholine,rat hepatocytes [1]; 1 μM,105 ± 1.8 nmol/mg protein
same,Mass Phosphatidylethanolamine,rat hepatocytes [1]; 1 μM,44.9 ± 1.4 nmol/mg protein
same,Mass Phosphatidylserine,rat hepatocytes [1]; 1 μM,15.5 ± 2.6 nmol/mg protein
same,Mass Total sphingolipids,rat hepatocytes [1]; 1 μM,6.7 ± 0.3 nmol/mg protein
same,fold increase of sphinganine versus control,"rat hepatocytes [1]; 1 μM, 4 d",110 fold
same,free sphingosine,"rat hepatocytes [1]; 1 μM, 4 d",52±1 pmol/dish
same,mass of free sphinganine,"rat hepatocytes [1]; 1 μM, 4 d",1499±18 pmol/dish
same,level of total sphingolipids,"rat hepatocytes [1]; 1 μM, 4 d, cells on Matrigel",2.1±0.1 nmol/dish
same,reduction of level of total sphingolipids,"rat hepatocytes [1]; 1 μM, 4 d, cells on Matrigel",about half
same,Mass Phosphatidylcholine,rat hepatocytes [1]; 10 μM,112 ± 3.4 nmol/mg protein
same,Mass Phosphatidylethanolamine,rat hepatocytes [1]; 10 μM,44.4 ± 0.9 nmol/mg protein
same,Mass Phosphatidylserine,rat hepatocytes [1]; 10 μM,12.3 ± 1.9 nmol/mg protein
same,Mass Total sphingolipids,rat hepatocytes [1]; 10 μM,6.5 ± 0.7 nmol/mg protein
same,amount of free sphingosine,rat hepatocytes [1]; within the first 2 h (FIG. 4B),only a small reduction
same,Radiolabelling Phosphatidylcholine,rat hepatocytes [2]; 1 μM,2640 ± 264 cm/mg protein × 10^−3
same,Radiolabelling Phosphatidylethanolamine,rat hepatocytes [2]; 1 μM,163 ± 4.4 cm/mg protein × 10^−3
same,Radiolabelling Phosphatidylserine,rat hepatocytes [2]; 1 μM,48.8 ± 2.9 cm/mg protein × 10^−3
same,Radiolabelling Phosphatidylcholine,rat hepatocytes [2]; 10 μM,2740 ± 196 cm/mg protein × 10^−3
same,Radiolabelling Phosphatidylethanolamine,rat hepatocytes [2]; 10 μM,153 ± 10 cm/mg protein × 10^−3
same,Radiolabelling Phosphatidylserine,rat hepatocytes [2]; 10 μM,52.3 ± 3.6 cm/mg protein × 10^−3
same,effect on activity of serine palmitoyltransferase in vitro,[3]; 25 μM,did not reduce
same,activity of serine palmitoyltransferase in vitro,[3]; in the presence of 25 μM,88±3 pmol 3-ketosphinganine formed/min/mg of microsomal protein
same,tumor promotion,[4],promotion of liver tumors

# From US6720184B1, “Method of altering sphingolipid metabolism and detecting fumonisin ingestion and contamination” (Emory University, priority 1991, dated 2004)
